One series relates to 8226/s cells. As to the kind of experiment: Combination cytotoxicity with imexon, MTT assay, combination index (median-effect). It counts as cell-based, human. Particulars: in combination with imexon at fixed constant ratio, 5 days after drugging, classified by combination index.
A further series relates to A375 cells. As to the kind of experiment: Combination cytotoxicity with imexon, SRB assay, combination index (median-effect). Format: cell-based, human. Conditions: in combination with imexon at fixed constant ratio, 5 days after drugging, classified by combination index. In general terms: The SRB assay estimates cell density from bound dye.
Series [1] can be described thus: Toxicology study in non-tumor bearing (normal) mice.
Protocol: A toxicology study was performed in non-tumor bearing (i.e., normal) mice given imexon (100 mg/kg/day×9 days) with either gemcitabine (180 mg/kg days 1, 5 and 9) or cytarabine (800 mg/kg days 1, 4 and 7). The tests were conducted to evaluate whether there was increased bone marrow toxicity or decreased renal and hepatic function for imexon combined with either agent.

Take `COc1cccc2c1C(=O)c1c(O)c3c(c(O)c1C2=O)C[C@@](O)(C(=O)CO)C[C@@H]3O[C@H]1C[C@H](N)[C@H](O)[C@H](C)O1` [doxorubicin]: the “Effect of second antineoplastic agent in combination with imexon, 8226/S CELL LINE” value (from here on “Effect … 8226/S CELL LINE”) in the series on 8226/s cells is given as “Antagonistic (Where the combination index is greater than 1, antagonism is indicated)”. For the same compound, the “Effect of second antineoplastic agent in combination with imexon, A375 CELL LINE” value (“Effect … A375 CELL LINE” below) in the series on A375 cells is listed as “Antagonistic (Where the combination index is greater than 1, antagonism is indicated)”.

For `CN(Cc1cnc2nc(N)nc(N)c2n1)c1ccc(C(=O)N[C@@H](CCC(=O)O)C(=O)O)cc1` [methotrexate], the “Effect … 8226/S CELL LINE” value with 8226/s cells is “Antagonistic (Where the combination index is greater than 1, antagonism is indicated)”. Also, in the series on A375 cells, the “Effect … A375 CELL LINE” value is “Antagonistic (Where the combination index is greater than 1, antagonism is indicated)”.

On to `Nc1ccn([C@@H]2O[C@H](CO)[C@@H](O)C2(F)F)c(=O)n1` [gemcitabine], for which the “Effect … 8226/S CELL LINE” value with 8226/s cells is on record as “Synergistic (Where the combination index is less than 1, synergism is indicated)”. Also, the “Effect … A375 CELL LINE” value with A375 cells is “Synergistic (Where the combination index is less than 1, synergism is indicated)”.

As to `N=C1NC(=O)N2CC12` (stereo not shown) [Imexon, 4-imino-1,3-diazabicyclo[3.1.0]-hexan-2-one], the “Mean Platelet Counts (SD), Day 10” value in series [1] (Day 10, imexon 100 mg/kg days 1-9, cytarabine 800 mg/kg days 1, 4, 7, gemcitabine 180 mg/kg days 1, 5, 9) is reported as 880 (180) × 1000/μL. Moreover, the “Mean Platelet Counts (SD), Day 12” value in series [1] (Day 12, imexon 100 mg/kg days 1-9, cytarabine 800 mg/kg days 1, 4, 7, gemcitabine 180 mg/kg days 1, 5, 9) is 920 (138) × 1000/μL. In addition, the “number of red blood cells” value in series [1] (imexon 100 mg/kg/day x 9 days) was “increased slightly”.

`C[C@@H]1C[C@H]2[C@@H]3CCC4=CC(=O)C=C[C@]4(C)[C@@]3(F)[C@@H](O)C[C@]2(C)[C@@]1(O)C(=O)CO` [dexamethasone]: the “Effect … 8226/S CELL LINE” value with 8226/s cells was “Antagonistic (Where the combination index is greater than 1, antagonism is indicated)”. Also, in the series on A375 cells, the “Effect … A375 CELL LINE” value is on record as “Additive (Where the combination index is equal to 1, summation (also commonly referred to as additivity) is indicated)”.

In the case of `Nc1ccn([C@@H]2O[C@H](CO)[C@@H](O)[C@@H]2O)c(=O)n1` [cytarabine], the “Effect … 8226/S CELL LINE” value in the series on 8226/s cells is recorded as “Synergistic (Where the combination index is less than 1, synergism is indicated)”. Also, the “Effect … A375 CELL LINE” value in the series with A375 cells is “Synergistic (Where the combination index is less than 1, synergism is indicated)”.

With `CCC1=C[C@@H]2CN(C1)Cc1c([nH]c3ccccc13)[C@@](C(=O)OC)(c1cc3c(cc1OC)N(C)[C@H]1[C@@](O)(C(=O)OC)[C@H](OC(C)=O)[C@]4(CC)C=CCN5CC[C@]31[C@@H]54)C2` [vinorelbine], in the series with 8226/s cells, the “Effect … 8226/S CELL LINE” value is on record as “Additive (Where the combination index is equal to 1, summation (also commonly referred to as additivity) is indicated)”. In addition, the “Effect … A375 CELL LINE” value with A375 cells is recorded as “Additive (Where the combination index is equal to 1, summation (also commonly referred to as additivity) is indicated)”.

Regarding `CN(C)/N=N/c1[nH]cnc1C(N)=O` [dacarbazine (DTIC), dacarbazine], the “Effect … 8226/S CELL LINE” value with 8226/s cells is given as “Synergistic (Where the combination index is less than 1, synergism is indicated)”. Moreover, in the series on A375 cells, the “Effect … A375 CELL LINE” value is reported as “Synergistic (Where the combination index is less than 1, synergism is indicated)”.

Take `CC(=O)O[C@@]12CO[C@@H]1C[C@H](O)[C@@]1(C)C(=O)[C@H](O)C3=C(C)[C@@H](OC(=O)[C@H](O)[C@@H](NC(=O)OC(C)(C)C)c4ccccc4)C[C@@](O)([C@@H](OC(=O)c4ccccc4)[C@H]21)C3(C)C` [taxotere, docetaxel]: the “Effect … 8226/S CELL LINE” value in the series with 8226/s cells is “Synergistic (Where the combination index is less than 1, synergism is indicated)”. The “Effect … A375 CELL LINE” value in the series on A375 cells is “Synergistic (Where the combination index is less than 1, synergism is indicated)”.

On to `N.N.[Cl][Pt][Cl]` [cisplatin], for which, in the series with 8226/s cells, the “Effect … 8226/S CELL LINE” value is “Synergistic (Where the combination index is less than 1, synergism is indicated)”. Further, in the series on A375 cells, the “Effect … A375 CELL LINE” value is “Synergistic (Where the combination index is less than 1, synergism is indicated)”.

Turning to `CC(=O)O[C@H]1C(=O)[C@@]2(C)[C@H]([C@H](OC(=O)c3ccccc3)[C@]3(O)C[C@H](OC(=O)[C@H](O)[C@@H](NC(=O)c4ccccc4)c4ccccc4)C(C)=C1C3(C)C)[C@]1(OC(C)=O)CO[C@@H]1C[C@@H]2O` [paclitaxel], in the series with 8226/s cells, the “Effect … 8226/S CELL LINE” value was “Antagonistic (Where the combination index is greater than 1, antagonism is indicated)”. Further, in the series with A375 cells, the “Effect … A375 CELL LINE” value is reported as “Additive (Where the combination index is equal to 1, summation (also commonly referred to as additivity) is indicated)”.

Regarding `O=c1[nH]cc(F)c(=O)[nH]1` [5-fluorouracil], the “Effect … 8226/S CELL LINE” value with 8226/s cells was “Synergistic (Where the combination index is less than 1, synergism is indicated)”. For the same compound, in the series on A375 cells, the “Effect … A375 CELL LINE” value is listed as “Synergistic (Where the combination index is less than 1, synergism is indicated)”.

Values taken from patent US20080153891A1, “SYNERGISTIC ANTI-CANCER COMPOSITIONS” (The Arizona Board of Regents, priority 2003, published 2008).
